From the supplement of paper PMC10307832

How the values were obtained:
Experiment in all cases: relative viability (nuclei count vs DMSO), 5 days (fraction); higher = more cells survive
Motesanib = compound: CC1(C)CNc2cc(NC(=O)c3cccnc3NCc3ccncc3)ccc21 [Motesanib]
How it was run: (§1)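 Five library-drug doses, separated by factors of √10, were pinned into 1536-well plates holding lung cancer cell lines after an overnight stay at 37 °C. Cells were fixed, permeabilised and Hoechst-stained in one step after 5 days without medium change, then imaged at 4×. Viability compares treated-well with vehicle-well nuclei, counted in MetaXpress, as a median across plates. Passing plates had control CV below 25% and at least one doubling.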

[1] = compound: C[C@@]1(C(=O)Nc2ccc(F)nc2)CCCN1c1nc(Nc2cc(C3CC3)n[nH]2)c2cccn2n1
How it was run: as §1

Motesanib + Decitabine = compound: CC1(C)CNc2cc(NC(=O)c3cccnc3NCc3ccncc3)ccc21 [Motesanib] + Nc1ncn([C@H]2C[C@H](O)[C@@H](CO)O2)c(=O)n1 [Decitabine] (partner 2 µM)
How it was run: (§2)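 Lung cancer cell lines were seeded in 1536-well plates and dosed by pin tool the next day, with either a single drug or a fixed anchor-drug dose combined with five library-drug doses (not always all listed) spaced in √10 steps. Five days later, one step fixed the cells and stained their nuclei (final 0.05% Triton X-100, 1% formaldehyde, 1 ug/ml Hoechst), and nuclei were counted on 4× images. Relative viability is the nuclei count in treated wells divided by the count in vehicle wells, and each value is the median of duplicate plates.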

[2] = compound: C[C@@]1(C(=O)Nc2ccc(F)nc2)CCCN1c1nc(Nc2cc(C3CC3)n[nH]2)c2cccn2n1 + C[C@]1(O)C[C@@H](c2nc(-c3ccc4ccc(-c5ccccc5)nc4c3)c3c(N)nccn32)C1 [Linsitinib] (partner 1 µM)
How it was run: as §2

How did the relative viability (Motesanib; 0.01 µM) turn out when UMC-11 was run?
The relative viability was 0.951.

And the relative viability (Motesanib; 0.03162 µM)?
The relative viability was 1.07.

What about the relative viability (Motesanib; 0.1 µM) of the same cell line?
The relative viability was 0.872.

And the relative viability (Motesanib; 0.3162 µM)?
Its relative viability is 1.

What about the relative viability (Motesanib; 1 µM) of the same cell line?
The relative viability was 1.13.

What about the relative viability ([1]; 0.04 µM) of the same cell line?
The relative viability was 0.981.

And the relative viability ([1]; 0.1265 µM)?
The relative viability was 1.03.

What about the relative viability ([1]; 0.4 µM) of the same cell line?
The relative viability was 0.907.

What about the relative viability ([1]; 1.265 µM) of the same cell line?
Its relative viability is 0.797.

What about the relative viability (Motesanib + Decitabine; first compound 0.01 µM) of the same cell line?
The relative viability was 0.611.

And the relative viability (Motesanib + Decitabine; first compound 0.03162 µM)?
Its relative viability is 0.677.

What about the relative viability (Motesanib + Decitabine; first compound 0.1 µM) of the same cell line?
Its relative viability is 0.331.

And the relative viability (Motesanib + Decitabine; first compound 0.3162 µM)?
The relative viability was 0.653.

What about the relative viability (Motesanib + Decitabine; first compound 1 µM) of the same cell line?
The relative viability was 0.724.

And the relative viability ([2]; first compound 0.04 µM)?
The relative viability was 1.08.

And the relative viability ([2]; first compound 0.1265 µM)?
Its relative viability is 0.985.

What about the relative viability ([2]; first compound 0.4 µM) of the same cell line?
The relative viability was 0.957.

What about the relative viability ([2]; first compound 1.265 µM) of the same cell line?
Its relative viability is 1.05.
